In the supplement of paper PMC11281043:
± gives the standard deviation of the averaged measurements.

Experiments:
Danio rerio embryo/larva [1] = assay: max % larvae with craniofacial defects across tested concentrations; higher = more toxic; extreme values may be limits of the assay; conditions: exposure: 6-8 hpf to 5 dpf, scored at 6 dpf
Danio rerio embryo/larva [2] = assay: max % larvae generally abnormal across tested concentrations; higher = more toxic; extreme values may be limits of the assay; conditions: exposure: 6-8 hpf to 5 dpf, scored at 6 dpf
Danio rerio embryo/larva [3] = assay: max % larvae with blood pooling across tested concentrations; higher = more toxic; extreme values may be limits of the assay; conditions: exposure: 6-8 hpf to 5 dpf, scored at 6 dpf
Danio rerio embryo/larva [4] = assay: max % larvae with edema across tested concentrations; higher = more toxic; extreme values may be limits of the assay; conditions: exposure: 6-8 hpf to 5 dpf, scored at 6 dpf
Danio rerio embryo/larva [5] = assay: max % larvae with uninflated swim bladder across tested concentrations; higher = more toxic; extreme values may be limits of the assay; conditions: exposure: 6-8 hpf to 5 dpf, scored at 6 dpf
Danio rerio embryo/larva [6] = assay: max % larvae with abnormal position across tested concentrations; higher = more toxic; extreme values may be limits of the assay; conditions: exposure: 6-8 hpf to 5 dpf, scored at 6 dpf
Danio rerio embryo/larva [7] = assay: max % larvae with pigmentation defects across tested concentrations; higher = more toxic; conditions: exposure: 6-8 hpf to 5 dpf, scored at 6 dpf
Danio rerio embryo/larva [8] = assay: max % larvae with tail defects across tested concentrations; higher = more toxic; extreme values may be limits of the assay; conditions: exposure: 6-8 hpf to 5 dpf, scored at 6 dpf
Danio rerio embryo/larva [9] = assay: max % larvae with spinal defects across tested concentrations; higher = more toxic; extreme values may be limits of the assay; conditions: exposure: 6-8 hpf to 5 dpf, scored at 6 dpf
Danio rerio embryo/larva [10] = assay: BMC general abnormality; higher = less potent; conditions: exposure: 6-8 hpf to 5 dpf, scored at 6 dpf
Experimental: (§1)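 Zebrafish embryos (with chorion) were exposed from 6-8 hpf to each PFAS (8-point half-log series, top concentration up to 100 uM, 0.4% DMSO, sealed plates, 26 C; n = 6 embryos per concentration), rinsed at 5 dpf and scored at 6 dpf by two blinded observers for mortality, hatching and malformations. Endpoint scores are the % of living larvae affected (dead larvae excluded; […]). Curves were fitted with tcpl (cutoff 16%), and the BMC is the concentration at a benchmark response of 21.6%.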

Danio rerio embryo/larva [11] = assay: BMC edema; higher = less potent; conditions: max tested concentration (log10 uM): 2; exposure: 6-8 hpf to 5 dpf, scored at 6 dpf
Experimental: as §1

Danio rerio embryo/larva [12] = assay: max % larvae unhatched across tested concentrations; max tested concentration (log10 uM): 2; higher = more toxic; conditions: exposure: 6-8 hpf to 5 dpf, scored at 6 dpf
Danio rerio embryo/larva [13] = assay: BMC any abnormality; max tested concentration (log10 uM): 2; higher = less potent; conditions: exposure: 6-8 hpf to 5 dpf, scored at 6 dpf
Experimental: as §1

Danio rerio embryo/larva [14] = assay: max % larvae with any abnormality across tested concentrations; max tested concentration (log10 uM): 2; higher = more toxic; extreme values may be limits of the assay; conditions: exposure: 6-8 hpf to 5 dpf, scored at 6 dpf
Danio rerio embryo/larva [15] = assay: BMC swim bladder non-inflation; higher = less potent; conditions: max tested concentration (log10 uM): 2; exposure: 6-8 hpf to 5 dpf, scored at 6 dpf
Experimental: as §1

Danio rerio embryo/larva [16] = assay: max % larvae dead across tested concentrations; max tested concentration (log10 uM): 2; higher = more toxic; extreme values may be limits of the assay; conditions: exposure: 6-8 hpf to 5 dpf, scored at 6 dpf

Compound	max % larvae (Danio rerio embryo/larva [1])	max % larvae generally abnormal across tested concentrations (Danio rerio embryo/larva [2])	max % larvae (Danio rerio embryo/larva [3])	max % larvae (Danio rerio embryo/larva [4])	max % larvae (Danio rerio embryo/larva [5])	max % larvae (Danio rerio embryo/larva [6])	max % larvae (Danio rerio embryo/larva [7])	max % larvae (Danio rerio embryo/larva [8])	max % larvae (Danio rerio embryo/larva [9])	BMC general abnormality (Danio rerio embryo/larva [10])	BMC edema (Danio rerio embryo/larva [11])	max % larvae unhatched across tested concentrations (Danio rerio embryo/larva [12])	BMC any abnormality (Danio rerio embryo/larva [13])	max % larvae (Danio rerio embryo/larva [14])	BMC swim bladder non-inflation (Danio rerio embryo/larva [15])	max % larvae dead across tested concentrations (Danio rerio embryo/larva [16])
FC(F)(I)C(F)(F)C(F)(F)C(F)(F)C(F)(F)C(F)(F)I [1,6-Diiodoperfluorohexane] (max tested concentration (log10 uM): 2)	90%	95 ± 7.1%	56.7 ± 33%	67.5 ± 3.5%	100%	54.6 ± 0.59%	10 ± 14%	7.5 ± 11%	33.3 ± 18%	4.24 ± 2.6 µM						
FC(F)(F)C(F)(F)C(F)(F)C(F)(F)C(F)(F)CCI [1-Iodo-1H,1H,2H,2H-perfluoroheptane]											31.5 µM	0%	29.3 µM	72.9%	31.5 µM	
FC(F)(F)C(F)(F)C(F)(F)C(F)(F)C(F)(F)CCI [1-Iodo-1H,1H,2H,2H-perfluoroheptane] (max tested concentration (log10 uM): 2)	14.3%	42.9%	0%	35.7%	35.7%	10.7%	0%	7.14%	4.17%	31.4 µM						
FC(F)(F)C(F)(F)C(F)(F)C(F)(F)C(F)(F)C(F)(F)C(F)(F)I [1-Iodopentadecafluoroheptane]												0%	10.9 µM	83.3%	56.7 µM	16.7%
C=C(C)C(=O)OCC(F)(F)C(F)(F)C(F)(F)C(F)F [1H,1H,5H-Perfluoropentyl methacrylate]												0%	27.9 µM	66.7%		66.7%
C=CC(=O)OCC(F)(F)C(F)(F)C(F)(F)C(F)(F)COC(=O)C=C [1H,1H,6H,6H-Perfluorohexane-1,6-diol diacrylate] (max tested concentration (log10 uM): 1)	8.33%	25%	0%	25%	50%	4.17%	0%	0%	0%	7.57 µM						
Cc1ccc(S(=O)(=O)OCC(F)(F)C(F)(F)C(F)(F)C(F)(F)C(F)(F)C(F)F)cc1 [1H,1H,7H-Perfluoroheptyl 4-methylbenzenesulfonate]												0%	20.3 µM	75%	8.97 µM	0%
OCC(F)(F)C(F)(F)C(F)(F)C(F)(F)C(F)(F)C(F)(F)CO [1H,1H,8H,8H-Perfluorooctane-1,8-diol] (max tested concentration (log10 uM): 2)	25%	52.1%	0%	50%	87.5%	8.33%	0%	2.08%	8.33%	50.1 µM						
OCC(F)(F)C(F)(F)C(F)(F)C(F)(F)C(F)(F)C(F)(F)C(F)(F)C(F)(F)CO [1H,1H,10H,10H-Perfluorodecane-1,10-diol] (max tested concentration (log10 uM): 1)	83.3%	75%	33.3%	66.7%	83.3%	4.17%	0%	8.33%	4.17%	3.79 µM						
NCC(F)(F)C(F)(F)C(F)(F)C(F)(F)C(F)(F)C(F)(F)F [1H,1H-Perfluoroheptylamine]											79.2 µM	0%	79.2 µM	33.3%		0%
NCC(F)(F)C(F)(F)C(F)(F)C(F)(F)C(F)(F)C(F)(F)F [1H,1H-Perfluoroheptylamine] (max tested concentration (log10 uM): 2)	0%	33.3%	0%	33.3%	0%		0%	0%	0%	79.2 µM						
C=CC(=O)OCCC(F)(F)C(F)(F)C(F)(F)C(F)(F)F [2-(Perfluorobutyl)ethyl acrylate]												0%	26.3 µM	100%	75.7 µM	
C=CC(=O)OCCC(F)(F)C(F)(F)C(F)(F)C(F)(F)F [2-(Perfluorobutyl)ethyl acrylate] (max tested concentration (log10 uM): 2)	0%	50%	0%	0%	100%	0%	0%	0%	0%	74.8 µM						
OCCC(F)(F)C(F)(F)C(F)(F)C(F)(F)C(F)(F)C(F)(F)F [2-(Perfluorohexyl)ethanol] (max tested concentration (log10 uM): 2)	68.2%	79.5%	0%	79.5%	81.8%	11.4%	0%	13.6%	6.82%	3.37 µM						
